From patent publication US7893299B2, “Interleukin-1 and tumor necrosis factor-αmodulators; syntheses of such modulators and methods of using such modulators” (Nereus Pharmaceuticals, Inc., priority 2005, dated 2011)
Where two headings read alike, the source gives them in different places.

Experiments:
[1] = tested on: TNF-α induced nuclear factor-κB (NF-κB) activation; test: HEK293 NF-κB/Luciferase reporter cell line; type: cell-based
[2] = tested on: bone marrow stromal cells (BMSCs); test: viability of MM patient-derived bone marrow stromal cells (BMSCs); type: cell-based
Source text: Besides nuclear condensation, NF-KB inhibitor triggered proteolytic cleavage of poly (ADP ribose) polymerase (PARP), a hallmark of apoptosis.

PC3 (Prostate) = test: 48 hr cytotoxicity, PC-3; type: cell-based, human
Protocol: B16-F10 (ATCC; CRL-6475), DU 145 (ATCC; HTB-81), HEK293 (ATCC; CRL-1573), HT-29 (ATCC; HTB-38), LoVo (ATCC; CCL-229), MDA-MB-231 (ATCC; HTB-26), MIA PaCa-2 (ATCC; CRL-1420), NCI-H292 (ATCC; CRL-1848), OVCAR-3 (ATCC, HTB-161), PANC-1 (ATCC; CRL-1469), PC-3 (ATCC; CRL-1435), RPMI 8226 (ATCC; CCL-155) and U266 (ATCC; TIB-196) are maintained in appropriate culture media. The cells are cultured in an incubator at 37° C. in 5% CO2 and 95% humidified air.
For cell growth inhibition assays, B16-F10, DU 145, HEK293, HT-29, LoVo, MDA-MB-231, MIA PaCa-2, NCI-H292, OVCAR-3, PANC-1, PC-3, RPMI 8226 and U266 cells are seeded at 1.25×10^3, 5×10^3, 1.5×10^4, 5×10^3, 5×10^3, 1×10^4, 2×10^3, 4×10^3, 1×10^4, 7.5×10^3, 5×10^3, 2×10^4, 2.5×10^4 cells/well respectively in 90 μl complete media into Corning 3904 black-walled, clear-bottom tissue culture plates. 20 mM stock solutions of compounds of Formula II, IIA, and IIB are prepared in 100% DMSO, aliquoted and stored at −80° C. Compounds of Formula II, IIA, and IIB are serially diluted and added in triplicate to the test wells resulting in final concentrations ranging from of 20 μM to 0.2 pM. […]
Following 48 hours of drug exposure, 10 μl of 0.2 mg/ml resazurin (obtained from Sigma-Aldrich Chemical Co.) in Mg^2+, Ca^2+ free phosphate buffered saline is added to each well and the plates are returned to the incubator for 3-6 hours. Since living cells metabolize Resazurin, the fluorescence of the reduction product of Resazurin is measured using a Fusion microplate fluorometer (Packard Bioscience) with λex=535 nm and λem=590 nm filters. […]
The cytotoxicity assays were performed by seeding individual cell lines at appropriate density in the 96 well flat-bottomed plates and allowed to attach for 24 hours at 37° C., 5% CO2 and 95% humidified air (RPMI 8226 and U266 cells were plated in 96 well plates on the day of compound addition). […] Cell viability was assessed 48 hours later by measuring the fluorescence of the reduction product of Resazurin by a Fusion microplate fluorometer (PerkinElmer) with λex=535 nm and λem=590 nm filters. […]

C=CC(=O)C1(C)CCCC2(C)C3=CCC(C)(C=C)C[C@@H]3CC[C@H]12 (stereo in doubt) [NPI-1387, 1-[(1S,4aS,7R)-1,4a,7-Trimethyl-7-vinyl-1,2,3,4,4a,6,7,8,8a,9,10,10a-dodecahydro-1-phenanthrenyl]-2-propen-1-one]
TNF-α induced NF-κB activation [1]: reduced TNF-α induced nuclear factor-κB (NF-κB) activation
viability of bone marrow stromal (stem) cells [2]: does not affect the viability of bone marrow stem cells
viability of bone marrow stromal (stem) cells ([2]; listed as NF-KB inhibitor): does not affect the viability
IC50 (PC3 (Prostate)): 10 ± 2 µM
IC50 (PC3 (Prostate); Homo sapiens, 48 h): 11 ± 2 µM
